Test systems include Escherichia coli BW25113; Acinetobacter baumannii; Bacillus subtilis 168; Escherichia coli K-12; Enterococcus faecalis; Enterococcus faecium; Pseudomonas aeruginosa; Staphylococcus aureus.
What all share (assay): ≥ marks a high value that may be exact or a test limit, other limits are often not marked, values filed in µg/mL are converted to µM
Assay [1] deals with Candida albicans ATCC 90028.
Assay [2] relates to Escherichia coli ATCC 25726.
Assay [3] deals with Staphylococcus aureus ATCC 25923.
In assay [4] the test system is Candida albicans ATCC 2002.
Assay [5] concerns Escherichia coli ATCC 25922.
The test system of assay [6] is Pseudomonas aeruginosa CMCCB 10104.
In assay [7] the test system is Staphylococcus aureus ATCC 2592.
Assay [8] concerns Pseudomonas aeruginosa ATCC 27853.

Molecules are shown by their SMILES. Values after ≈ are worked out from the molar mass of the structure shown. Values joined by “and” are separate entries in the source; they are usually repeats but may differ in a detail not shown here. Identical values can stand only once. Bounds are passed on as bounds.

On to `CC[C@H](C)[C@H](NC(=O)[C@@H]1CCCN1C(=O)[C@H](CCCN=C(N)N)NC(=O)[C@H](CCCN=C(N)N)NC(=O)[C@H](CCCN=C(N)N)NC(=O)[C@H](Cc1c[nH]c2ccccc12)NC(=O)[C@@H]1CCCN1C(=O)[C@H](CCCN=C(N)N)NC(=O)[C@H](CCCN=C(N)N)NC(=O)[C@H](Cc1c[nH]c2ccccc12)NC(=O)[C@@H](N)CCCN=C(N)N)C(=O)N[C@@H](CCCN=C(N)N)C(=O)N1CCC[C@H]1C(=O)N1CCC[C@H]1C(=O)N[C@@H](Cc1ccccc1)C(=O)N[C@@H](Cc1ccc(O)cc1)C(=O)N[C@@H](CCCN=C(N)N)C(=O)O` [RWRRPWRRRPIRPPFYR], for which the minimal inhibitory concentration (MIC) (commonly the lowest concentration found to suppress growth) in the assay on Escherichia coli BW25113 was determined as 8 µM (≈ 19.6 µg/mL).

On to `CC[C@H](C)[C@H](NC(=O)[C@@H]1CCCN1C(=O)[C@H](CCCN=C(N)N)NC(=O)[C@H](CCCN=C(N)N)NC(=O)[C@H](Cc1ccccc1)NC(=O)[C@@H](N)CCCN=C(N)N)C(=O)N[C@@H](CCCN=C(N)N)C(=O)N[C@@H](CCCN=C(N)N)C(=O)N1CCC[C@H]1C(=O)N1CCC[C@H]1C(=O)N[C@H](C(=O)N[C@@H](CCCN=C(N)N)C(=O)N1CCC[C@H]1C(=O)N1CCC[C@H]1C(=O)N[C@@H](Cc1ccccc1)C(=O)N[C@@H](Cc1ccc(O)cc1)C(=O)N1CCC[C@H]1C(=O)O)[C@@H](C)CC` [RFRRPIRRPPIRPPFYP], for which the MIC against Escherichia coli BW25113 amounted to 4 µM (≈ 8.89 µg/mL).

In the case of `CC[C@H](C)[C@H](NC(=O)CN)C(=O)N[C@@H](Cc1c[nH]c2ccccc12)C(=O)N[C@@H](CC(=O)O)C(=O)N[C@H](C(=O)N[C@H](C(=O)N[C@@H](CCCCN)C(=O)N[C@@H](CO)C(=O)N[C@@H](CCSC)C(=O)NCC(=O)N[C@@H](CCCCN)C(=O)N[C@H](C(=O)N[C@@H](Cc1ccccc1)C(=O)N[C@@H](C)C(=O)NCC(=O)N[C@@H](CC(C)C)C(=O)N[C@H](C(=O)N[C@@H](CC(C)C)C(=O)N[C@@H](CCC(N)=O)C(=O)N[C@@H](CC(N)=O)C(=O)N[C@@H](CC(C)C)C(N)=O)[C@@H](C)CC)C(C)C)[C@@H](C)CC)[C@@H](C)O` [GIWDTIKSMGKVFAGLILQNL], the MIC against Acinetobacter baumannii is 25 µM (≈ 57.6 µg/mL); in assay [1], 12.5 µM (≈ 28.8 µg/mL); in assay [2], at least 100 µM; in [3], 25 µM (≈ 57.6 µg/mL).

Turning to `CC[C@H](C)[C@H](N)C(=O)N[C@@H](CC(C)C)C(=O)NCC(=O)N1CCC[C@H]1C(=O)N[C@H](C(=O)N[C@H](C(=O)N[C@@H](CO)C(=O)N[C@@H](CCCCN)C(=O)N[C@H](C(=O)NCC(=O)NCC(=O)N[C@H](C(=O)N[C@@H](CC(C)C)C(=O)NCC(=O)NCC(=O)N[C@@H](CC(C)C)C(=O)N[C@@H](CC(C)C)C(=O)N[C@@H](CCCCN)C(=O)N[C@@H](CC(N)=O)C(=O)N[C@@H](CC(C)C)C(N)=O)C(C)C)[C@@H](C)CC)[C@@H](C)CC)C(C)C` [ILGPVISKIGGVLGGLLKNL], the MIC in assay [4] was found to be 3.06 µM (≈ 6 µg/mL); in assay [5] it was 6.12 µM (≈ 12 µg/mL); in [6], 6.12 µM (≈ 12 µg/mL); in assay [7], 3.06 µM (≈ 6 µg/mL).

`CC[C@H](C)[C@H](N)C(=O)NCC(=O)N[C@@H](CC(C)C)C(=O)N[C@@H](CCCN=C(N)N)C(=O)NCC(=O)N[C@@H](CC(C)C)C(=O)NCC(=O)N[C@@H](CCCN=C(N)N)C(=O)N[C@@H](CCCCN)C(=O)N[C@H](C(=O)N[C@@H](C)C(=O)N[C@@H](CC(C)C)C(=O)N[C@H](C(=O)N[C@@H](Cc1cnc[nH]1)C(=O)N[C@@H](CCCCN)C(=O)N[C@@H](CCCCN)C(=O)N[C@@H](Cc1ccc(O)cc1)C(=O)NCC(=O)O)[C@@H](C)CC)[C@@H](C)CC` [IGLRGLGRKIALIHKKYG]: the MIC in the assay with Bacillus subtilis 168 and against Escherichia coli K-12 was at least 120 µM in each case.

For `CC(C)C[C@H](NC(=O)[C@H](CC(C)C)NC(=O)[C@H](CC(C)C)NC(=O)[C@H](CC(C)C)NC(=O)[C@H](CC(C)C)NC(=O)[C@H](CCCN=C(N)N)NC(=O)[C@H](Cc1c[nH]c2ccccc12)NC(=O)[C@@H](N)CCCN=C(N)N)C(=O)N[C@@H](CCCCN)C(=O)N[C@@H](CCCN=C(N)N)C(=O)N[C@@H](Cc1cnc[nH]1)C(=O)O` [RWRLLLLLKRH], the MIC against Enterococcus faecalis and against Enterococcus faecium was 23.5 µM (≈ 35.4 µg/mL) each time.

Regarding `CC[C@H](C)[C@H](NC(=O)[C@H](CCCN=C(N)N)NC(=O)[C@H](CCC(N)=O)NC(=O)[C@@H](NC(=O)[C@@H](NC(=O)[C@H](CCC(N)=O)NC(=O)[C@H](C)N)[C@@H](C)CC)C(C)C)C(=O)N[C@@H](CCCCN)C(=O)N[C@@H](CC(=O)O)C(=O)N[C@@H](Cc1ccccc1)C(=O)N[C@@H](CC(C)C)C(=O)N[C@@H](CCCN=C(N)N)C(N)=O` [AQIVQRIKDFLR], the MIC against Escherichia coli K-12 is at least 240 µM.

For the molecule `CC[C@H](C)[C@H](NC(=O)[C@H](CCCCN)NC(=O)[C@H](CO)NC(=O)[C@H](C)NC(=O)[C@H](Cc1c[nH]c2ccccc12)NC(=O)CN)C(=O)NCC(=O)N[C@@H](CCC(N)=O)C(=O)N[C@H](C(=O)N[C@@H](CC(C)C)C(=O)NCC(=O)N[C@@H](CCCCN)C(=O)N[C@@H](CCSC)C(=O)N[C@@H](C)C(=O)N[C@@H](CCCCN)C(=O)N[C@H](C(=O)NCC(=O)N[C@@H](CC(C)C)C(=O)N[C@@H](CCC(N)=O)C(=O)N[C@@H](CCC(=O)O)C(=O)N[C@@H](CC(C)C)C(=O)N[C@H](C(=O)N[C@@H](CCC(N)=O)C(=O)N1CCC[C@H]1C(=O)N[C@@H](CCCCN)C(=O)O)[C@@H](C)CC)C(C)C)[C@@H](C)O` [GWASKIGQTLGKMAKVGLQELIQPK], the MIC is at least 50 µM in [2] and 50 µM (≈ 134 µg/mL) in assay [3].

For the molecule `CC[C@H](C)[C@H](NC(=O)[C@H](C)NC(=O)[C@H](CCCCN)NC(=O)[C@H](CC(C)C)NC(=O)[C@H](CCCCN)NC(=O)[C@@H](N)CC(C)C)C(=O)N[C@@H](C)C(=O)N[C@@H](C)C(=O)N[C@@H](CC(C)C)C(=O)N[C@@H](C)C(=O)N[C@@H](CCCCN)C(=O)N[C@@H](CCCCN)C(=O)N[C@@H](CCCCN)C(=O)N[C@@H](Cc1c[nH]c2ccccc12)C(N)=O` [LKLKAIAALAKKKW], the MIC against Acinetobacter baumannii was 5.06 µM (≈ 8 µg/mL); against Enterococcus faecalis, 7.59 µM (≈ 12 µg/mL); in [8] it was 40.5 µM and > 20.2 µM; in the assay with Pseudomonas aeruginosa it was 10.1 µM (≈ 16 µg/mL); with Staphylococcus aureus, 15.2 µM (≈ 24 µg/mL).

The molecule `CC[C@H](C)[C@H](NC(=O)[C@@H]1CCCN1C(=O)[C@H](Cc1c[nH]c2ccccc12)NC(=O)[C@H](CCCN=C(N)N)NC(=O)[C@H](Cc1ccccc1)NC(=O)[C@@H](N)CCCN=C(N)N)C(=O)N[C@@H](CCCN=C(N)N)C(=O)N[C@@H](CCCN=C(N)N)C(=O)N[C@@H](CCCN=C(N)N)C(=O)N1CCC[C@H]1C(=O)N[C@H](C(=O)N[C@@H](CCCN=C(N)N)C(=O)N1CCC[C@H]1C(=O)N1CCC[C@H]1C(=O)N[C@@H](Cc1ccccc1)C(=O)N[C@@H](Cc1ccc(O)cc1)C(=O)N[C@@H](CCCN=C(N)N)C(=O)O)[C@@H](C)CC` [RFRWPIRRRPIRPPFYR] came in with an MIC against Escherichia coli BW25113 of 8 µM (≈ 19 µg/mL).

For `CC[C@H](C)[C@H](NC(=O)[C@H](CCSC)NC(=O)[C@H](C)NC(=O)[C@H](CC(N)=O)NC(=O)[C@H](CCCCN)NC(=O)[C@H](Cc1ccccc1)NC(=O)[C@H](CO)NC(=O)[C@H](CC(=O)O)NC(=O)[C@H](CC(C)C)NC(=O)[C@H](Cc1ccccc1)NC(=O)CN)C(=O)NCC(=O)N[C@H](C(=O)N[C@@H](C)C(=O)N[C@@H](CCCCN)C(=O)N[C@@H](CO)C(=O)N[C@H](C(=O)NCC(=O)N[C@@H](CCCCN)C(=O)N[C@H](C(=O)N[C@@H](C)C(=O)N[C@@H](CC(C)C)C(=O)N[C@@H](CO)C(=O)N[C@H](C(=O)N[C@@H](CC(C)C)C(=O)N[C@@H](C)C(=O)N[C@H]1CSSC[C@@H](C(=O)O)NC(=O)[C@H](CO)NC(=O)[C@H](CCCCN)NC(=O)[C@H](CC(=O)O)NC(=O)[C@H]([C@@H](C)CC)NC(=O)[C@H](CCCCN)NC1=O)[C@@H](C)O)[C@@H](C)O)C(C)C)C(C)C` [GFLDSFKNAMIGVAKSVGKTALSTLACKIDKSC], the MIC was 18.4 µM (≈ 62.5 µg/mL) in [2] and 36.7 µM (≈ 125 µg/mL) in assay [3].

On to `CC[C@H](C)[C@H](NC(=O)[C@@H]1CCCN1C(=O)[C@H](Cc1c[nH]c2ccccc12)NC(=O)[C@H](CCCN=C(N)N)NC(=O)[C@H](Cc1c[nH]c2ccccc12)NC(=O)[C@@H](N)CCCN=C(N)N)C(=O)N[C@@H](CCCN=C(N)N)C(=O)N[C@@H](CCCN=C(N)N)C(=O)N[C@@H](CCCN=C(N)N)C(=O)N1CCC[C@H]1C(=O)N[C@H](C(=O)N[C@@H](CCCN=C(N)N)C(=O)N1CCC[C@H]1C(=O)N1CCC[C@H]1C(=O)N[C@@H](Cc1ccccc1)C(=O)N[C@@H](Cc1c[nH]c2ccccc12)C(=O)N[C@@H](CCCN=C(N)N)C(=O)O)[C@@H](C)CC` [RWRWPIRRRPIRPPFWR], for which the MIC in the assay with Escherichia coli BW25113 is 4 µM (≈ 9.73 µg/mL).

The record behind these values is DBAASP.
